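Results reflect a 48-hour exposure of cells in 96-well plates to compound at five concentrations. Here, GI50 denotes the concentration required for 50% inhibition of growth. At the TGI there is no net growth.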
Key:
Assay in all cases: NCI tumour cell line growth inhibition, 48 h
786-0 renal = tested on: 786-0 renal
A498 renal = tested on: A498 renal
A549 NSCLC = tested on: A549 NSCLC
ACHN renal = tested on: ACHN renal
BT-549 breast = tested on: BT-549 breast
CAKI-1 renal = tested on: CAKI-1 renal
CCRF-CEM leukemia = tested on: CCRF-CEM leukemia
COLO 205 colon = tested on: COLO 205 colon
DU-145 prostate = tested on: DU-145 prostate
EKVX NSCLC = tested on: EKVX NSCLC
HCC-2998 colon = tested on: HCC-2998 colon
HCT-116 colon = tested on: HCT-116 colon
HCT-15 colon = tested on: HCT-15 colon
HL-60(TB) leukemia = tested on: HL-60(TB) leukemia
HOP-62 NSCLC = tested on: HOP-62 NSCLC
HOP-92 NSCLC = tested on: HOP-92 NSCLC
HS 578T breast = tested on: HS 578T breast
HT29 colon = tested on: HT29 colon
IGROV1 ovarian = tested on: IGROV1 ovarian
K-562 leukemia = tested on: K-562 leukemia
KM12 colon = tested on: KM12 colon
LOX IMVI melanoma = tested on: LOX IMVI melanoma
M14 melanoma = tested on: M14 melanoma
MALME-3M melanoma = tested on: MALME-3M melanoma
MCF7 breast = tested on: MCF7 breast
MDA-MB-231 breast = tested on: MDA-MB-231 breast
MDA-MB-435 = tested on: MDA-MB-435
MOLT-4 leukemia = tested on: MOLT-4 leukemia
NCI-H226 lung = tested on: NCI-H226 lung
NCI-H23 lung = tested on: NCI-H23 lung
NCI-H460 lung = tested on: NCI-H460 lung
NCI-H522 lung = tested on: NCI-H522 lung
NCI/ADR-RES ovarian = tested on: NCI/ADR-RES ovarian
OVCAR-3 ovarian = tested on: OVCAR-3 ovarian
OVCAR-4 ovarian = tested on: OVCAR-4 ovarian
OVCAR-5 ovarian = tested on: OVCAR-5 ovarian
OVCAR-8 ovarian = tested on: OVCAR-8 ovarian
PC-3 prostate = tested on: PC-3 prostate
RPMI-8226 leukemia = tested on: RPMI-8226 leukemia
RXF 393 renal = tested on: RXF 393 renal
SF-268 CNS = tested on: SF-268 CNS
SF-295 CNS = tested on: SF-295 CNS
SF-539 CNS = tested on: SF-539 CNS
SK-MEL-2 melanoma = tested on: SK-MEL-2 melanoma
SK-MEL-28 melanoma = tested on: SK-MEL-28 melanoma
SK-MEL-5 melanoma = tested on: SK-MEL-5 melanoma
SK-OV-3 ovarian = tested on: SK-OV-3 ovarian
SN12C renal = tested on: SN12C renal
SNB-19 CNS = tested on: SNB-19 CNS
SNB-75 CNS = tested on: SNB-75 CNS
SR leukemia = tested on: SR leukemia
SW-620 colon = tested on: SW-620 colon
T-47D breast = tested on: T-47D breast
TK-10 renal = tested on: TK-10 renal
U251 CNS = tested on: U251 CNS
UACC-257 melanoma = tested on: UACC-257 melanoma
UACC-62 melanoma = tested on: UACC-62 melanoma
UO-31 renal = tested on: UO-31 renal

In the case of Nc1ncnc2c1c(C(=O)NO)cn2C1OC(CO)C(O)C1O (stereo not drawn), the GI50 (786-0 renal) was 630 nM, the TGI (786-0 renal) was 14200 nM and the GI50 (A498 renal) was 915 nM. The TGI (A498 renal) was 6900 nM, the GI50 (A549 NSCLC) was 462 nM and the TGI (A549 NSCLC) was greater than 40400 nM. For the same compound, the GI50 (ACHN renal) was 203 nM, the TGI (ACHN renal) was 1150 nM and the GI50 (BT-549 breast) was 426 nM. For the same compound, the TGI (BT-549 breast) was 19200 nM, the GI50 (CAKI-1 renal) was 213 nM and the TGI (CAKI-1 renal) was 2500 nM. The GI50 (CCRF-CEM leukemia) was 235 nM, the TGI (CCRF-CEM leukemia) was greater than 100000 nM and the GI50 (COLO 205 colon) was 279 nM. For the same compound, the TGI (COLO 205 colon) was 1550 nM, the GI50 (DU-145 prostate) was 224 nM and the GI50 (EKVX NSCLC) was 776 nM. It also gave a TGI (EKVX NSCLC) of 15700 nM, a GI50 (HCC-2998 colon) of 587 nM and a TGI (HCC-2998 colon) of 6830 nM. The GI50 (HCT-116 colon) was 175 nM, the TGI (HCT-116 colon) was greater than 23800 nM and the GI50 (HCT-15 colon) was 213 nM. It also gave a TGI (HCT-15 colon) of 1890 nM, a GI50 (HL-60(TB) leukemia) of 158 nM and a TGI (HL-60(TB) leukemia) of 457 nM. For the same compound, the GI50 (HOP-62 NSCLC) was 380 nM, the TGI (HOP-62 NSCLC) was greater than 22000 nM and the GI50 (HOP-92 NSCLC) was 205 nM. For the same compound, the TGI (HOP-92 NSCLC) was 1250 nM, the GI50 (HS 578T breast) was 331 nM and the TGI (HS 578T breast) was 3540 nM. It also gave a GI50 (HT29 colon) of 390 nM, a TGI (HT29 colon) greater than 100000 nM and a GI50 (IGROV1 ovarian) of 279 nM. For the same compound, the GI50 (K-562 leukemia) was 790 nM, the TGI (K-562 leukemia) was greater than 100000 nM and the GI50 (KM12 colon) was 267 nM. The GI50 (LOX IMVI melanoma) was 262 nM, the TGI (LOX IMVI melanoma) was 1770 nM and the GI50 (M14 melanoma) was 285 nM. The TGI (M14 melanoma) was 1530 nM, the GI50 (MALME-3M melanoma) was 388 nM and the TGI (MALME-3M melanoma) was 3110 nM. For the same compound, the GI50 (MCF7 breast) was 213 nM, the TGI (MCF7 breast) was 1690 nM and the GI50 (MDA-MB-231 breast) was 464 nM. The TGI (MDA-MB-231 breast) was 5320 nM, the GI50 (MDA-MB-435) was 363 nM and the TGI (MDA-MB-435) was 1900 nM. It also gave a GI50 (MOLT-4 leukemia) of 306 nM, a TGI (MOLT-4 leukemia) of 1660 nM and a GI50 (NCI-H226 lung) of 600 nM. It also gave a TGI (NCI-H226 lung) of 5510 nM, a GI50 (NCI-H23 lung) of 329 nM and a TGI (NCI-H23 lung) of 2890 nM. It also gave a GI50 (NCI-H460 lung) of 431 nM, a TGI (NCI-H460 lung) of 9190 nM and a GI50 (NCI-H522 lung) of 435 nM. It also gave a TGI (NCI-H522 lung) of 4620 nM, a GI50 (NCI/ADR-RES ovarian) of 137 nM and a GI50 (OVCAR-3 ovarian) of 278 nM. The TGI (OVCAR-3 ovarian) was 2420 nM, the GI50 (OVCAR-4 ovarian) was 213 nM and the TGI (OVCAR-4 ovarian) was 5610 nM. For the same compound, the GI50 (OVCAR-5 ovarian) was 604 nM, the GI50 (OVCAR-8 ovarian) was 353 nM and the TGI (OVCAR-8 ovarian) was greater than 100000 nM. The GI50 (PC-3 prostate) was 286 nM, the TGI (PC-3 prostate) was greater than 41900 nM and the GI50 (RPMI-8226 leukemia) was 282 nM. The GI50 (RXF 393 renal) was 331 nM, the GI50 (SF-268 CNS) was 397 nM and the GI50 (SF-295 CNS) was 193 nM. For the same compound, the TGI (SF-295 CNS) was 1130 nM, the GI50 (SF-539 CNS) was 551 nM and the TGI (SF-539 CNS) was 3010 nM. It also gave a GI50 (SK-MEL-2 melanoma) of 333 nM, a TGI (SK-MEL-2 melanoma) of 1920 nM and a GI50 (SK-MEL-28 melanoma) of 479 nM. For the same compound, the TGI (SK-MEL-28 melanoma) was 3630 nM, the GI50 (SK-MEL-5 melanoma) was 739 nM and the TGI (SK-MEL-5 melanoma) was 2150 nM. It also gave a GI50 (SK-OV-3 ovarian) of 239 nM, a TGI (SK-OV-3 ovarian) of 2070 nM and a GI50 (SN12C renal) of 244 nM. It also gave a TGI (SN12C renal) of 1240 nM, a GI50 (SNB-19 CNS) of 847 nM and a TGI (SNB-19 CNS) greater than 100000 nM. The GI50 (SNB-75 CNS) was 509 nM, the TGI (SNB-75 CNS) was 8040 nM and the GI50 (SR leukemia) was 329 nM. It also gave a TGI (SR leukemia) of 1880 nM, a GI50 (SW-620 colon) of 252 nM and a TGI (SW-620 colon) greater than 31700 nM. For the same compound, the GI50 (T-47D breast) was 88.5 nM, the TGI (T-47D breast) was 1390 nM and the GI50 (TK-10 renal) was 572 nM. The TGI (TK-10 renal) was greater than 31400 nM, the GI50 (U251 CNS) was 419 nM and the TGI (U251 CNS) was greater than 100000 nM. For the same compound, the GI50 (UACC-257 melanoma) was 522 nM, the TGI (UACC-257 melanoma) was 3520 nM and the GI50 (UACC-62 melanoma) was 320 nM. For the same compound, the TGI (UACC-62 melanoma) was 1190 nM, the GI50 (UO-31 renal) was 368 nM and the TGI (UO-31 renal) was 3750 nM.

From PubChem BioAssay (NCI)
